{"source": "patent US11999806B2", "about": "“Broad-spectrum polypeptide against enterovirus and application thereof” (WUHAN INSTITUTE OF VIROLOGY, CHINESE ACADEMY OF SCIENCES, priority 2018, dated 2024)", "key": {"EV71 [1]": {"system": "EV71", "format": "cell-based, enterovirus 71", "conditions": "RD cells, EV71 0.1 MOI, 24 h; for IC50: read-out: IC50 against EV71 by CCK8 method; for Virus inhibition rate (%): CCK-8", "method": "• (1) 293T cells were plated in a 24-well cell plate. • (2) After the cells reached 70%-80% confluence, the MEM medium containing 10% serum was replaced with a MEM medium containing 2% serum (0.5 ml/well), and 5 μl of 10^6 PFU/mL EV71 virus per well was added. • (3) After 1 hour, polypeptides P2, 3A-TAT-EP, 3A-EP-DRI and 3A-EP-PEG-PA were added at a final concentration of 0.01 μM, 0.1 μM, 1 μM, and 10 μM, respectively. • (4) Samples were collected 24 hours after virus infection, and RNA was extracted with a total RNA extraction kit. • (5) The supernatant in each well was discarded, then 350 μl of TRK Lysis Buffer was added to the well and the plate was shaken on the shaker for 5 minutes. • (6) 350 μl of 70% ethanol (DEPC-treated) was added to the well and the plate was shaken on the shaker for 5 minutes. • (7) The mixture in the well was transferred to a RNA extraction column and centrifuged at 12000 g for 1 min. • (8) The solution collected in the recovery tube was added back to the column and centrifuged at 12,000 g for 1 min. • (9) RNA washing buffer 1 was added to the column and centrifuged at 12,000 g for 30 s. • (10) RNA washing buffer 2 was added to the column and centrifuged at 12,000 g for 1 min. • (11) Step (10) was repeated once. • (12) The empty column was centrifuged at 12,000 g for 2 min to completely remove residual RNA washing buffer. • (13) 50 μl DEPC-treated water was added to the column and centrifuge at 12000 g for 2 min. • (14) 2 μl RNA sample was used according to one step qRT-PCR kit for fluorescence quantification experiment. 3. […] Each concentration was tested in triplicate. • (3) The diluted virus solution was added to the plate of step (1), 100 μL per well with the final virus concentration was 0.1 MOI. Wells without polypeptide and virus (well without treatment), wells with virus only were used as controls. • (4) The mixture of step (2) was added to the 96-well plate plated with cells in step (1) and incubated in 5% CO2 at 37° C. for 24 h. Then CCK8 kit was used to determine the inhibitory effect of the polypeptide on virus. • (5) The inhibition rate of different concentrations of polypeptides on viral infection was calculated using the following formula: OD means the value of OD450-OD630, inhibition rate=(OD well with treatment−OD well with virus only)×100%/(OD well without treatment−OD well with virus only)\n• (1) RD cells in good growth state were plated in a 96-well plate. • (2) After the cells reached 70%-80% confluence, the MEM medium containing 10% serum was replaced with a MEM medium containing 2% serum. Group without polypeptide and virus, and group with virus but without polypeptide were included as controls. The final virus concentration was 0.1 MOI. • (3) 1 h later, polypeptide CR at a final concentration of 5 μM, 2.5 μM, 1.25 μM, 0.625 μM, 0.3125 μM, and 0.15625 μM was added, respectively. Group without polypeptide and virus, and group with virus but without polypeptide were set as controls. • (4) 24 hours after virus infection, when the change in the control group with only virus was obvious, 10 μl of viable cell detection agent CCK-8 was added to each well and mixed well. • (5) The plate was incubated at 37° C. for 2 h. • (6) The absorbance value at OD450 was measured with a microplate reader. Inhibition rate of polypeptide=(OD well with treatment−OD well with virus only)×100%/(OD well without treatment−OD well with virus only), OD refers to the value of OD450-OD630.\n• (1) RD cells in good growth state were plated in a 96-well plate. • (2) After the cells reached 70%-80% confluence, the MEM medium containing 10% serum was replaced with a MEM medium containing 2% serum. Group without polypeptide and virus, and group with virus but without polypeptide were included as controls. The final virus concentration was 0.1 MOI. • (3) 1 h later, polypeptide CR at a final concentration of 2.5 μM, 1.25 μM, 0.625 μM, 0.3125 μM, and 0.15625 μM was added, respectively. […]"}, "EV71 [2]": {"system": "EV71", "experiment": "Anti-EV71 efficiency in 293T cells, viral RNA by qRT-PCR", "format": "cell-based, enterovirus 71", "conditions": "for antiviral effect of P2 variants as EV71 inhibitor, in words: FIG. 5, 293T cells, compared with P2", "method": "• (1) 293T cells, Vero cells and Huh7.5 cells were plated in 24-well plates respectively. • (2) After the cells reached 70%-80% confluence, the MEM medium containing 10% serum was replaced with a MEM medium containing 2% serum (0.5 ml/well), and 5 μl of 10^6 PFU/mL EV71 virus per well was added. • (3) After 1 h, polypeptide P2 was added to different cells at a final concentration of 0.01 μM, 0.1 μM, 1 μM, 10 μM, and 50 μM, respectively. • (4) Samples were collected 24 hours after virus infection, and RNA was extracted with a total RNA extraction kit as follows. • (5) The supernatant in each well was discarded, then 350 μl of TRK Lysis Buffer was added to the well and the plate was shaken on the shaker for 5 minutes. • (6) 350 μl of 70% ethanol (DEPC-treated) was added to the well and the plate was shaken on the shaker for 5 minutes. • (7) The mixture in the well was transferred to a RNA extraction column and centrifuged at 12,000 g for 1 min. • (8) The solution collected in the recovery tube was added back to the column and centrifuged at 12,000 g for 1 min. • (9) RNA washing buffer 1 was added to the column and centrifuged at 12,000 g for 30 s. • (10) RNA washing buffer 2 was added to the column and centrifuged at 12,000 g for 1 min. • (11) Step (10) was repeated once. • (12) The empty column was centrifuged at 12,000 g for 2 min to completely remove residual RNA washing buffer. • (13) 50 μl DEPC-treated H2O was added to the column and centrifuge at 12,000 g for 2 min. • (14) 2 μl RNA sample was used according to one step qRT-PCR kit for fluorescence quantification experiment. […]"}, "CVA16": {"system": "CVA16", "format": "cell-based, Coxsackievirus A16", "conditions": "CCK-8; for Virus inhibition rate (%): CVA16, RD cells, 24 h; for IC50: read-out: IC50 against CVA16"}}, "note": "Values joined by “and” are separate entries in the source; they are usually repeats but may differ in a detail not shown here. Equal values may be shown once. Read-outs that look alike come from different tables or passages of the source. Non-standard residues stand in square brackets, D forms with d. Residues, ends and D or L forms follow the SMILES beside them. No end group written: not given here.", "data": [{"compound": "CC[C@@H](C)[C@@H](NC(=O)[C@H]1CCCN1C(C)=O)C(=O)N[C@@H](C(=O)N[C@H](Cc1c[nH]c2ccccc12)C(=O)NCC(=O)N[C@H](CCC(N)=O)C(=O)N[C@H](CCC(=O)O)C(=O)N[C@H](CCCNC(=N)N)C(=O)N[C@H](CS)C(=O)N[C@H](Cc1ccc(O)cc1)C(=O)N[C@H](CCC(N)=O)C(=O)N[C@H](CCCNC(=N)N)C(=O)N[C@@H](C(=O)N[C@H](CCC(=O)O)C(=O)N[C@H](CCC(=O)O)C(=O)N1CCC[C@@H]1C(=O)N1CCC[C@@H]1C(=O)N[C@H](CCCNC(=N)N)C(=O)N[C@H](CCCNC(=N)N)C(=O)N[C@H](CCCNC(=N)N)C(=O)N[C@H](CCC(N)=O)C(=O)N[C@H](CCCNC(=N)N)C(=O)N[C@H](CCCNC(=N)N)C(=O)N[C@H](CCCCN)C(=O)N[C@H](CCCCN)C(=O)N[C@H](CCCNC(=N)N)C(=O)NCC(=O)N[C@H](Cc1ccc(O)cc1)C(N)=O)C(C)C)[C@H](C)CC", "note": "[3A-EP-DRI]", "values": [{"measurement": "IC50", "setting": "EV71 [1]", "result": 3560, "unit": "nM"}, {"measurement": "antiviral effect of P2 variants as EV71 inhibitor, in words", "setting": "EV71 [2]", "result": "improved antiviral effect"}]}, {"compound": "CCCCCCCCCCCCCCCC(=O)NCCCC[C@H](NC(=O)CCOCCOCCOCCOCCNC(=O)[C@H](CCCCN)NC(=O)[C@H](C)NC(=O)[C@@H]1CCCN1C(=O)[C@@H](NC(=O)[C@@H](NC(=O)[C@H](Cc1c[nH]c2ccccc12)NC(=O)CNC(=O)[C@H](CCC(N)=O)NC(=O)[C@H](CCC(=O)O)NC(=O)[C@H](CCCNC(=N)N)NC(=O)[C@H](CS)NC(=O)[C@H](Cc1ccc(O)cc1)NC(=O)[C@H](CCC(N)=O)NC(=O)[C@H](CCCNC(=N)N)NC(=O)[C@@H](NC(=O)[C@H](CCC(=O)O)NC(=O)[C@@H](N)CCC(=O)O)C(C)C)[C@@H](C)CC)[C@@H](C)CC)C(=O)O", "note": "[3A-EP-PEG4-PA]", "values": [{"measurement": "antiviral effect of P2 variants as EV71 inhibitor, in words", "setting": "EV71 [2]", "result": "improved antiviral effect"}]}, {"compound": "CC(=O)N[C@H](CCCNC(=N)N)C(=O)N[C@H](CS)C(=O)N[C@H](Cc1ccc(O)cc1)C(=O)N[C@H](CCC(N)=O)C(=O)N[C@H](CCCNC(=N)N)C(=O)N[C@@H](C(=O)N[C@H](CCC(=O)O)C(=O)N[C@H](CCC(=O)O)C(=O)N1CCC[C@@H]1C(=O)N1CCC[C@@H]1C(=O)N[C@H](CCCNC(=N)N)C(=O)N[C@H](CCCNC(=N)N)C(=O)N[C@H](CCCNC(=N)N)C(=O)N[C@H](CCC(N)=O)C(=O)N[C@H](CCCNC(=N)N)C(=O)N[C@H](CCCNC(=N)N)C(=O)N[C@H](CCCCN)C(=O)N[C@H](CCCCN)C(=O)N[C@H](CCCNC(=N)N)C(=O)NCC(=O)N[C@H](Cc1ccc(O)cc1)C(N)=O)C(C)C", "note": "[ER-DRI] (Ac-[dR][dC][dY][dQ][dR][dV][dE][dE][dP][dP][dR][dR][dR][dQ][dR][dR][dK][dK][dR]G[dY]-NH2)", "values": [{"measurement": "Virus inhibition rate (%)", "setting": "EV71 [1]; 0.625 μM", "result": "37.8% and 40.47% and 37.95%"}, {"measurement": "Virus inhibition rate (%)", "setting": "EV71 [1]; 1.25 μM", "result": "75.85% and 72.43% and 77.52%"}, {"measurement": "Virus inhibition rate (%)", "setting": "EV71 [1]; 2.5 μM", "result": "78.68% and 85.29% and 79.76%"}, {"measurement": "IC50", "setting": "EV71 [1]", "result": 640, "unit": "nM"}, {"measurement": "Virus inhibition rate (%)", "setting": "CVA16; 0.15625 μM", "result": "7.885% and 3.667% and 8.802%"}, {"measurement": "Virus inhibition rate (%)", "setting": "CVA16; 0.3125 μM", "result": "12.1% and 11.19% and 21.45%"}, {"measurement": "Virus inhibition rate (%)", "setting": "CVA16; 0.625 μM", "result": "15.77% and 13.75% and 27.14%"}, {"measurement": "Virus inhibition rate (%)", "setting": "CVA16; 1.25 μM", "result": "59.05% and 58.86% and 50.79%"}, {"measurement": "Virus inhibition rate (%)", "setting": "CVA16; 2.5 μM", "result": "93.52% and 84.17% and 77.93%"}, {"measurement": "Virus inhibition rate (%)", "setting": "CVA16; 5 μM", "result": "104.7% and 107.3% and 106.2%"}, {"measurement": "effect on CVA16, in words", "setting": "CVA16; RD cells", "result": "can significantly inhibit CVA16"}, {"measurement": "IC50", "setting": "CVA16; RD cells", "result": 856, "unit": "nM"}]}, {"compound": "RRRRRRRREEVRQYCRDQ [P2]", "values": [{"measurement": "IC50", "setting": "CVA16; RD cells", "result": 1530, "unit": "nM"}, {"measurement": "IC50", "setting": "EV71 [2]; 293T cells, read-out: IC50 against EV71 by qRT-PCR", "result": 9.68, "unit": "µM"}]}, {"compound": "YGRKKRRQRRRGSGEEVRQYCR [ER]", "values": [{"measurement": "IC50", "setting": "EV71 [1]", "result": 1260, "unit": "nM"}, {"measurement": "IC50", "setting": "CVA16; RD cells", "result": 3210, "unit": "nM"}]}]}
